Consider one compound from paper PMC8745345, “Hydroxy Pentacyclic Triterpene Acid, Kaempferol, Inhibits the Human 5-Hydroxytryptamine Type 3A Receptor Activity” (International Journal of Molecular Sciences, 2022).

The target of this test is T1, human 5-HT3A receptor I144A mutant (Homo sapiens, UniProt P46098).
T1 sequence (P46098 24-478): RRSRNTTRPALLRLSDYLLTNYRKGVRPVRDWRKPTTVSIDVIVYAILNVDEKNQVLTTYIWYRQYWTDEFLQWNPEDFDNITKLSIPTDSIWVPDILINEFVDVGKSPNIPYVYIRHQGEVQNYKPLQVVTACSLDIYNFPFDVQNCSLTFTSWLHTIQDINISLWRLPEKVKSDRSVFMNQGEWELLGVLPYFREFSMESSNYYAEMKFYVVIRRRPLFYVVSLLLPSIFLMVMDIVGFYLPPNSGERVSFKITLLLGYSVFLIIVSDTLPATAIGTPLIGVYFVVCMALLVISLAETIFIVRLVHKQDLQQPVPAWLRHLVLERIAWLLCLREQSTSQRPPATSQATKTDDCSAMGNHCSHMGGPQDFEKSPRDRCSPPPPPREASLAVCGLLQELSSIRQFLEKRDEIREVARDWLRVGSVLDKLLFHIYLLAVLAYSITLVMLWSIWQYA
The test is described as follows: Two-electrode voltage clamp, I5-HT inhibition, I144A mutant. The class given is cell-based. The following applies: −80 mV. Here is the method:
Human 5-HT3A receptor cDNA was linearized using restriction enzyme XhoI. In vitro transcription was performed using an mMESSAGE mMACHINE T7 Transcription Kit (Thermo Fisher Scientific, Waltham, MA, USA). The final mRNA product was dissolved in 1X Diethyl Pyrocarbonate (RNase-free water) at a final concentration of 1 μg/μL and kept in a deep-freezer at −80 °C until used.
Xenopus oocytes were used in this study as cells for expression of human 5-HT3A receptor. All female frogs used in this experiment were obtained from the Korean Xenopus Resource Center for Research (KXRCR000001). Xenopus management followed the guideline of Chonnam National University institution guidelines (CNU IACUC-YB-2016-07, July 2016). Xenopus oocytes were extracted during ice incubation state and isolated as single oocytes using collagenase II (2 mg/mL) in OR2 buffer (82.5 mM NaCl, 2 mM KCl, 1 mM MgCl2, 5 mM HEPES, pH 7.4). […]
The voltage relationship experiment for confirming the relationship between induce-inward current and voltage, the voltage was varied from −80 mV to +60 mV using a ramp protocol. […] All recording data were analyzed using Clampfit 9.0 (Molecular Devices, San Jose, CA, USA). […]
All presented experiments were performed at least three times for scientific verification. […] Induced-inward current data were analyzed with SigmaPlot 10.0 software (Systat Software, Inc., San Jose, CA, USA). […]
For orientation: In two-electrode clamp one electrode senses voltage and the other passes current.

One may read the IC50 as the concentration at which inhibition is half-maximal.

Turning to `O=c1c(O)c(-c2ccc(O)cc2)oc2cc(O)cc(O)c12` [KAE, kaempferol], 34.9 ± 11.2 µM corresponded to half-maximal inhibition (IC50) and the “n (Hill coefficient)” value came to 1.5 ± 0.4.
